Here are results for one compound from patent US20120214818A1, “METHODS OF TREATING DIASTOLIC DYSFUNCTION AND RELATED CONDITIONS” (THE BOARD OF TRUSTEES OF THE UNIVERSITY OF ILLINOIS, priority 2009, published 2012).

Several values for one entry are separate records, joined by “and”; a condition that tells them apart may be missing. Identical values can stand only once.

Data set [1] deals with DOCA-salt and sham mice. The experiment in a line: Echocardiography after chronic administration of ranolazine. Format: in vivo, mouse. The settings on record: for ES (%): chronic ranolazine in diet (5 mg per 1-g tablet, ~1 g daily) for 7 days. The method, then:
A special diet contained 5 mg ranolazine, 0.3 mg P450 inhibitor, and 0.25 mg red food color was pressed into a 1-g nutritionally complete grain-based tablet (Harlan, Madison, Wis.). The control diet contained 0.3 mg P450 inhibitor and 0.25 mg yellow food color pressed into the same type of 1-g tablets. DOCA-salt and sham mice consumed daily ˜1 g of the special diet from postoperative day 11 to 18.
Mice were anesthetized, maintained at 37° C., and studied by echocardiography (Vevo 770, VisualSonics Inc, Toronto, Canada). M-mode images in the parasternal long axis and the left ventricle (LV) short-axis views at the mid-papillary level were taken. Measurements were averaged from three consecutive beats during expiration. LV inflow velocities (E and A waves) were interrogated by conventional pulsed-wave Doppler from the apical four-chamber view. The mitral annulus longitudinal velocities (Sm, E′, and A′) were determined by pulsed-wave tissue Doppler from the apical four-chamber view. Interpretation was done by a two investigators blinded to the treatment groups. First, baseline images were acquired. Subsequently to determine the acute effect, the mice were injected with 30 mg/kg ranolazine by intraperitoneal route, followed by a second echocardiogram 30 min later.
In an additional set of experiments, we treated DOCA-salt mice with ranolazine for 7 days and measured diastolic function using echocardiography to evaluate the effect of chronic ranolazine therapy on myocardial function (Table 5).

Data set [2] relates to myofilaments of skinned left ventricular papillary fiber bundles. The data set can be described thus: Ca2+-sensitivity of tension in skinned fiber bundles (first series, pCa-tension). Format: biochemical, mouse. The settings on record: for myofilament Ca2+ sensitivity: DOCA-salt fibers/myocytes treated with ranolazine. The method, then:
Ca^2+-sensitivity of tension in skinned fibers: Myofilament response to Ca^2+ was measured as essentially described in Reference 24. Left ventricular papillary muscles were dissected from mouse hearts and placed in 4° C. high relaxing solution (HR), which contained 10.00 mM EGTA, 41.89 mM K-Prop, 6.57 mM MgCl2, 100.00 mM 2-[bis(2-hydroxyethyl)amino]ethanesulfonic acid (BES), 6.22 mM Na-ATP, 10.00 mM CrP, 5.00 mM Na-azide, 2.5 μg/mL Pepstatin, 1 μg/mL Leupeptin, and 50 μM PMSF, pH 7.0. The muscles were then dissected further under the microscope into uniform thin bundles of about 3-5 mm in length and 150-250 μm in diameter. The fiber bundles were placed then into a skinning solution of HR that contained 1% triton for 1-2 h at 4° C. The skinned fiber bundles were mounted with cellulose acetate glue in a force measuring apparatus and sarcomere length was adjusted to 2.2 μm using a laser diffraction pattern and width and thickness were determined for calculation of cross-sectional area. The fiber bundles were incubated in ranolazine or vehicle for 15 minutes, and then were activated at 22° C. over a series of pCa (−log of the M Ca^2+ concentration) values between pCa 8.00 and pCa 4.5. Activating solutions were prepared by mixing HR with a pCa 4.50 solution of 10.00 mM EGTA, 9.99 mM CaCl2, 22.16 mM K-Prop (K-Prop stock had 1.00 M propionic acid and 1.00 M KOH), 6.20 mM MgCl2, 100.00 mM BES, 6.29 mM Na-ATP, 10.00 mM creatine phosphate (CrP), 5.00 mM Na-azide, 2.5 μg/mL pepstatin, 1 μg/mL leupeptin, and 50 μM PMSF, pH 7.0. HR and pCa 8.00-pCa 4.50 solutions had one unit of creatine phosphokinase per 200 μL of solution. Tension generated was computed from the force/cross-sectional area and data were analyzed in the Graphpad Prism software and fit into a sigmoidal modified Hill equation in order to generate tension-pCa curves, Hill coefficients, and pCa50 (pCa value at half-maximum tension).
We measured myofilament response to Ca^2+ under two experimental conditions as described in detail below. In a first series of experiments the skinned fiber bundles were mounted in a force measuring apparatus and sarcomere length (SL) was adjusted to 2.2 μm using a laser diffraction pattern and width and thickness were determined for calculation of cross-sectional area. Force was measured over a range of pCa values Skinned fiber bundles were treated with 10 μmol/L ranolazine for 15 min prior to evaluation. In a second series of experiments under different experimental conditions, we determined steady-state Mg-ATPase activity, while simultaneously measuring isometric tension in skinned fiber bundles as a function of pCa. In all experiments, skinned fibers were treated with ranolazine or DMSO vehicle for 15 min prior to beginning either tension or tension/ATPase rate measurements. Tension generated was computed from the force/cross-sectional area and data were analyzed in the GraphPad Prism software and fit with a sigmoidal modified Hill equation in order to generate tension-pCa curves, Hill coefficients, and pCa50 (pCa value at half-maximum tension). We also determined cross-bridge kinetics employing a quick release/restretch protocol. The rate constant for force redevelopment, Ktr, provides a measure of the rate of cross-bridge entry into the force generating state. In all experiments, only fiber bundles retaining more than 80% of their initial maximum tension were included in the analysis. […]

For data set [3], the system named is patients. The settings on record: cited from earlier work.
In data set [4] the test system is dog model of chronic heart failure. The settings on record: cited from earlier work.
The mark [5] stands for this setting: DOCA-salt mice, chronic ranolazine in diet, 7 days.
[6] abbreviates: sham mice, chronic ranolazine in diet, 7 days.

As to `COc1ccccc1OCC(O)CN1CCN(CC(=O)Nc2c(C)cccc2C)CC1` (stereo not drawn) [ranolazine], the “ES (%)” value in data set [1] (DOCA-salt mice) is 53.3 ± 1.3%. Further, in data set [1] (setting [5]), the E/A was 1.84 ± 0.35; the “E′, early septal mitral annulus velocity (TDI)” value is given as 1.86 ± 0.13 cm/s; the “Sm, systolic septal mitral annulus velocity (TDI)” value was 1.82 ± 0.05 cm/s. Besides, the “ES (%)” value in data set [1] (sham mice) stood at 49.7 ± 4.9%. In data set [1] (setting [6]), the E/A was 2.42 ± 0.42; the “E/E′” value is reported as 28.0 ± 3.45; the “E′, early septal mitral annulus velocity (TDI)” value is listed as 2.11 ± 0.21 cm/s; the “E′/A′” value amounted to 1.03 ± 0.07. In data set [1] (setting [6]), the “Sm, systolic septal mitral annulus velocity (TDI)” value worked out at 2.04 ± 0.12 cm/s. Also, the Maximum Tension in data set [2] (DOCA-salt fibers treated with ranolazine (FIG. 11)) worked out at 36.03±1.50 mN/mm^2. In data set [2], the “myofilament Ca2+ sensitivity” value is on record as “returned the DOCA-salt myofilament sensitivity to levels similar to sham fibers”. Further, the “myofilament Ca2+ sensitivity” value in data set [2] (listed as Ranolazine) is recorded as “returned DOCA-salt myofilament sensitivity to levels similar to sham myocytes”. Moreover, in data set [2] (fibers from DOCA mice treated with 10 μmol/L ranolazine 15 min, listed as ranalozine), the Hill n is 3.71+/−1.0 and 3.71±1.0. Besides, the “pCa50 (pCa-tension relations normalized to maximum tension)” value in data set [2] (fibers from DOCA mice treated with 10 μmol/L ranolazine 15 min, sarcomere length 2.2 μm, 22° C., listed as ranalozine) is 6.0+/−0.03 and 6.0±0.03. The proarrhythmic risk entry in data set [3] (clinically relevant doses, MERLIN TIMI 36 investigators) was “no proarrhythmic risk”. In addition, the “relationship with the QTc interval” value in data set [3] (human, in vivo) is reported as “positive linear relationship”. In addition, the LVEDP result in data set [4] is reported as “reduces LVEDP”.
